Measured values reported in patent publication US10570117B2, “Phenylimidazole compound” (Otsuka Pharmaceutical Factory, Inc., priority 2015, dated 2020).
Values after ≈ are worked out from the molar mass of the structure shown. Where two headings read alike, the source gives them in different places.

Assays:
[1] = Solubility in gastric juice or intestinal juice model fluid (precipitation method using DMSO); format: physicochemical; conditions: room temperature
In short: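 Dissolved amount (μg/mL) quantified by UV of filtrate versus pre-made calibration curves. Precipitation approach: DMSO solutions spiked into pH 1.2 (JP 1st fluid) or pH 6.8 (JP 2nd fluid) medium, shaken at room temperature for 24 h before insolubles were filtered off.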

[2] = test system: lipoprotein lipase (LPL) gene; test: LPL mRNA elevating action (RT-PCR quantification of LPL mRNA in C2Cl2 cells); format: cell-based, mouse; conditions: Mus musculus, 24 h, compound 10 μM, ratio relative to the amount of LPL mRNA in cells with DMSO only, read-out: Rate of increase in LPL mRNA
In short: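 Read-out is LPL mRNA relative to vehicle (DMSO = 1), measured by reverse transcription and 20-cycle real-time PCR. Cells were the mouse striated-muscle line C2Cl2, treated 24 h with 10 μM compound in DMEM containing 10% FBS.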

[3] = pH 1.2, simulated gastric fluid, kinetic from dmso stock, 1st fluid for Disintegration Test of Japanese Pharmacopoeia (pH: 1.2), read-out: Solubility (μg/mL) 1st fluid
[4] = pH 6.8, kinetic from dmso stock, 2nd fluid for Disintegration Test of Japanese Pharmacopoeia (pH: 6.8), read-out: Solubility (μg/mL) 2nd fluid

| Compound | solubility at 24 h [1, 3] [µg/mL] | solubility at 24 h [1, 4] [µg/mL] | melting point | fold induction at 10 µM [2] |
| --- | --- | --- | --- | --- |
| COc1cc(OCc2ncccc2C(F)(F)F)ccc1-c1nc(-c2ccc(Cl)nc2)[nH]c1Cl [Example 221] | 66.5 (≈ 134 µM) | < 8.8 | 182 to 184 °C | 3.47 |
| COc1cc(OCc2ccc(C(F)(F)F)nc2)ccc1-c1[nH]c(C2CCC(F)(F)CC2)nc1C [Example 6] | 91.5 (≈ 190 µM) | 47 (≈ 97.6 µM) | 167 to 169 °C | 4.44 |
| COc1cc(-c2cnc(C3CCC(F)(F)CC3)[nH]2)ccc1O [Example 339] | > 62 | 58.9 (≈ 191 µM) | 131 to 136 °C | 1.32 |
| COc1cc(OCc2ncccc2C(F)(F)F)ccc1-c1c[nH]c(-c2ccc(F)nc2)n1 [Example 121] | > 89 | 1.8 (≈ 4.05 µM) | 201 to 202 °C | 3.38 |
| COc1cc(OCc2ccc(C(F)(F)F)cn2)ccc1-c1[nH]c(C2CCCC(F)(F)C2)nc1Br (centres unmarked) [Example 183] | 99 (≈ 181 µM) | 1.1 (≈ 2.01 µM) | 170 to 171 °C | 4.26 |
| Cc1cc(O)ccc1-c1cnc(-c2ccc(F)nc2)[nH]1 [Example 350] | 53.3 (≈ 198 µM) | 51 (≈ 189 µM) | 218 to 220 °C | 1.38 |
| COc1cc(OCc2ncc(C)cc2C)ccc1-c1nc(-c2ccc(F)nc2)[nH]c1Cl [Example 206] | > 88 | 7 (≈ 15.9 µM) | 109 to 124 °C | 2.75 |
| COc1cc(OCc2ncc(C(F)(F)F)cc2F)ccc1-c1[nH]c(C2CC(F)(F)C2)nc1Br [Example 400] | 97.1 (≈ 181 µM) | 0.6 (≈ 1.12 µM) | 192 to 195 °C | 4.49 |
| COc1cc(-c2nc(-c3ccc(Cl)nc3)[nH]c2Cl)ccc1OCc1cccc(F)n1 [Example 220] | < 0.3 | < 7.9 | 198 to 201 °C | 2.69 |
| COc1cc(OCc2ncc(C(F)(F)F)cc2F)ccc1-c1[nH]c(C2CCC2)nc1Cl [Example 373] | 88.3 (≈ 194 µM) | < 0.3 | 155 to 157 °C | 3.03 |
| COc1cc(OCc2ccc(C(F)(F)F)[n+]([O-])c2)ccc1-c1cnc(-c2ccc(F)nc2)[nH]1 [Example 314] | 50.2 (≈ 109 µM) | 0.9 (≈ 1.95 µM) | 234 to 239 °C | 1.66 |
| COc1cc(OCc2ccc(C(F)(F)F)cn2)ccc1-c1nc(-c2ccc(F)nc2)[nH]c1Cl [Example 233] | 9.9 (≈ 20.7 µM) | 1.1 (≈ 2.3 µM) | 190 to 193 °C | 3.87 |
| COc1cc(-c2[nH]c(C3CCC(F)(F)CC3)nc2Cl)ccc1OCc1ncc(C(F)(F)F)cc1F [Example 326] | 63.7 (≈ 123 µM) | 0.7 (≈ 1.35 µM) | 173 to 176 °C | 2.63 |
| COc1cc(-c2c[nH]c(-c3ccc(Cl)nc3)n2)ccc1OCc1cccc(F)n1 [Example 47] | 5.1 (≈ 12.4 µM) | 0.3 (≈ 0.73 µM) | 185 to 187 °C | 3.26 |
| COc1cc(OCc2ncc(F)cc2F)ccc1-c1cnc(-c2ccc(Cl)nc2)[nH]1 [Example 103] | 36 (≈ 84 µM) | < 0.3 | 190 to 192 °C | 2.36 |
| COc1cc(OCc2ccc(C(F)(F)F)cn2)ccc1-c1c[nH]c(-c2cccnc2)n1 [Example 89] | 85.4 (≈ 200 µM) | 1.8 (≈ 4.22 µM) | 240 to 242 °C | 1.69 |

| Compound | solubility at 24 h [1, 3] [µg/mL] | solubility at 24 h [1, 4] [µg/mL] | melting point | fold induction at 10 µM [2] |
| --- | --- | --- | --- | --- |
| COc1cc(OCc2ccc(C(F)(F)F)cn2)ccc1-c1c(Br)nc(-c2ccc(F)nc2)n1C [Example 303] | 84.3 (≈ 157 µM) | < 0.4 | 130 to 132 °C | 3.29 |
| COc1cc(OCc2ncccc2C(F)(F)F)ccc1-c1c[nH]c(-c2ccc(Cl)nc2)n1 [Example 43] | 16.2 (≈ 35.2 µM) | 3.4 (≈ 7.38 µM) | 185 to 187 °C | 3.48 |
| COCCn1c(-c2ccc(F)nc2)nc(Cl)c1-c1ccc(OCc2ccc(C(F)(F)F)cn2)cc1OC [Example 297] | 89.8 (≈ 167 µM) | 7 (≈ 13 µM) | 131 to 136 °C | 2.76 |
| COc1cc(OCc2ccncn2)ccc1-c1c[nH]c(-c2ccc(Cl)nc2)n1 [Example 45] | 27.8 (≈ 70.6 µM) | < 0.3 | 221 to 224 °C | 1.09 |
| Fc1cc(C(F)(F)F)cnc1COc1ccc(-c2[nH]c(C3CC(F)(F)C3)nc2Cl)cc1 [Example 397] | 15.9 (≈ 34.4 µM) | < 0.3 | 162 to 167 °C | 4.58 |
| COc1cc(-c2[nH]c(C3CC3)nc2Cl)ccc1OCc1ncc(C(F)(F)F)cc1F [Example 378] | 81.6 (≈ 185 µM) | 7.5 (≈ 17 µM) | 161 to 165 °C (dec.) | 1.24 |
| COc1cc(OCc2ncc(C(F)(F)F)cc2F)ccc1-c1[nH]c(-c2ccc(F)nc2)nc1C [Example 331] | 94.6 (≈ 199 µM) | 8 (≈ 16.8 µM) | 100 to 105 °C | 2.17 |
| COc1cc(OCc2ccc(C(F)(F)F)cn2)ccc1-c1nc(-c2ccc(F)nc2)[nH]c1C [Example 39] | > 99 | 5.2 (≈ 11.3 µM) | 141 to 150 °C | 2.7 |
| COc1cc(OCc2ccc(C(F)(F)F)cn2)ccc1-c1c(Br)nc(-c2ccc(Cl)nc2)n1C [Example 301] | 15.1 (≈ 27.3 µM) | < 0.4 | 125 to 127 °C | 2.99 |
| COc1cc(OCc2ncc(C(F)(F)F)cc2F)ccc1-c1cnc(C(C)(C)C)[nH]1 [Example 379] | 79.9 (≈ 189 µM) | 72.9 (≈ 172 µM) | 141 to 144 °C | 2.87 |
| CCSc1ccc(-c2nc(Cl)c(-c3ccc(OCc4ccc(C(F)(F)F)nc4)cc3OC)[nH]2)cn1 [Example 358] | 1.6 (≈ 3.07 µM) | < 0.4 | 160 to 163 °C | 4.18 |
| COc1cc(-c2[nH]c(C3CC(F)(F)C3)nc2Cl)ccc1OCc1ncc(C(F)(F)F)cc1F [Example 354] | 38.8 (≈ 78.9 µM) | 1.1 (≈ 2.24 µM) | 159 to 161 °C | 4.44 |
| COc1cc(OCc2cnc(Cl)s2)ccc1-c1cnc(-c2ccc(F)nc2)[nH]1 [Example 321] | 69.4 (≈ 166 µM) | 1.9 (≈ 4.56 µM) | 109 to 116 °C | 1.82 |
| Fc1ccc(-c2ncc(-c3ccc(OCc4ncc(C(F)(F)F)cc4F)cc3)[nH]2)cn1 [Example 344] | 85.9 (≈ 199 µM) | 4.6 (≈ 10.6 µM) | 174 to 177 °C | 1.83 |
| COc1cc(OCc2ncc(C(F)(F)F)cc2F)ccc1-c1cnc(C(C)C)[nH]1 [Example 381] | 78.2 (≈ 191 µM) | 66.9 (≈ 163 µM) | 84 to 89 °C | 2.19 |
| COc1cc(O)ccc1-c1[nH]c(-c2ccc(F)nc2)nc1C [Example 333] | 59 (≈ 197 µM) | 5.2 (≈ 17.4 µM) | 154 to 159 °C | 1.22 |
